For orientation: melting point means the temperature, or range, at which the solid turns liquid. In general, IC50 refers to the concentration that inhibits the measured activity by half. A high value points to a need for much substance.

Drawing on paper PMC6099735, “Piplartine Analogues and Cytotoxic Evaluation against Glioblastoma” (Molecules : A Journal of Synthetic Chemistry and Natural …, 2018), this text covers melting point and IC50 for 17 molecules.

Each structure is given as a SMILES string. Converted amounts (≈) assume the structure as drawn.

The subject of data set [1] is U87MG cells. As to the kind of experiment: MTT cell viability assay, cytotoxic activity against proliferation of U87MG cells. The format is cell-based, human. Particulars: Homo sapiens, U-87 MG, MTT assay, 48 h exposure, 0.78-50 μg/mL, mean ± SEM of four experiments. The procedure:
To evaluate the cytotoxic potential of compounds 2–19 against human U87MG, glioblastoma cells were used with several concentrations (0 to 50 μg/mL). After 48 h of incubation, cell viability rates were established by MTT and LDH analysis. IC50 values of each analogue were determined due to observed cell viability results after MTT assay. All tested analogues led to inhibition of cellular proliferation rates as compared to untreated cells in a clear concentration and compound type dependent manners, as illustrated in Table 1 and Figure 2.
Human glioblastoma (GBM) cell line U87MG (American Type Culture Collection; Rockville, MD, USA) within passage number 15–20 were grown in an incubator at 37 °C in a humidified atmosphere of 5% CO2. They were grown in Eagle’s Minimal Essential Medium from Sigma-Aldrich (Saint Louis, MO, USA), supplemented with 10% fetal bovine serum (FBS) and 100 μg/mL of each of the following antibiotics: penicillin and streptomycin [66].
To examine the effects of compounds on cell viability, an MTT assay was performed. U87MG cells were seeded at 1 × 10^4 cells per well in 96-well plate and allowed to attach for 24 h. Then the cells were exposed to different concentrations of 2–19 (0.78, 1.56, 3.125, 6.25, 12.5, 25 and 50 μg/mL) for 48 h. All the compounds were dissolved in dimethyl sulfoxide (DMSO), and diluted in serum-free culture medium. After the incubation, a 3-(4,5-dimethylthiazol-2-yl)-2,5-diphenyltetrazolium bromide (MTT) solution was applied to cell cultures according to the manufacturer’s instructions (Cayman Chemical Company®, Ann Arbor, MI, USA). After 3 h of incubation, MTT-formazan crystals were dissolved in DMSO and absorbance was measured at 570 nm on a plate reader and compared with control, untreated cells. The half-maximal inhibitory concentration values (IC50) were determined by MTT assay performed in four replicates.

As to `COC(=O)/C=C/c1cc(OC)c(OC)c(OC)c1` [Compound 2, (E)-Methyl-3-(3,4,5-trimethoxyphenyl)acrylate], the melting point is 135 to 136 °C. Besides, the IC50 in data set [1] came to 85.13 ± 0.78 µg/mL (≈ 337 µM).
Molecule `CCOC(=O)/C=C/c1cc(OC)c(OC)c(OC)c1` [Compound 3, (E)-Ethyl-3-(3,4,5-trimethoxyphenyl)acrylate] registered a half-maximal inhibitory concentration (IC50) in data set [1] of 100 ± 1.12 µg/mL (≈ 376 µM).
On the same count and under the same terms, the figure for `CCCOC(=O)/C=C/c1cc(OC)c(OC)c(OC)c1` [Compound 4, (E)-Propyl-3-(3,4,5-trimethoxyphenyl)acrylate] is 78.39 ± 0.69 µg/mL (≈ 280 µM).
In the case of `CCCCOC(=O)/C=C/c1cc(OC)c(OC)c(OC)c1` [Compound 5, (E)-Butyl-3-(3,4,5-trimethoxyphenyl)acrylate], the melting point was 74 to 75 °C. In data set [1], this molecule registered an IC50 of 57.9 ± 0.71 µg/mL (≈ 197 µM).
As to `CCCCCOC(=O)/C=C/c1cc(OC)c(OC)c(OC)c1` [Compound 6, (E)-Pentyl 3-(3,4,5-trimethoxyphenyl)acrylate], the melting point fell in the range of 105 to 106 °C. Besides, the midpoint of inhibition in data set [1], the IC50, lay at 31.7 ± 0.48 µg/mL (≈ 103 µM).
Turning to `CCCCCCCCCCOC(=O)/C=C/c1cc(OC)c(OC)c(OC)c1` [Compound 7, (E)-Decyl-3-(3,4,5-trimethoxyphenyl)acrylate], the melting point was in the range of 37 to 38 °C. This molecule had an IC50 in data set [1] of 34.9 ± 0.54 µg/mL (≈ 92.3 µM).
On to `COCCOC(=O)/C=C/c1cc(OC)c(OC)c(OC)c1` [Compound 8, (E)-2-Methoxyethyl-3-(3,4,5-trimethoxyphenyl)acrylate], for which the melting point fell in the range of 60 to 62 °C. In data set [1], this molecule yielded an IC50 of 50.1 ± 0.62 µg/mL (≈ 169 µM).
`COc1cc(/C=C/C(=O)OC(C)C)cc(OC)c1OC` [Compound 9, (E)-Isopropyl 3-(3,4,5-Trimethoxyphenyl)acrylate] displayed an IC50 in data set [1] of 81.43 ± 0.55 µg/mL (≈ 291 µM).
`COc1cc(/C=C/C(=O)Oc2cc(C(C)C)ccc2C)cc(OC)c1OC` [Compound 11, (E)-Carvacryl-3-(3,4,5-trimethoxyphenyl)acrylate] returned a melting point of 145 to 146 °C. Also, in data set [1], the IC50 was 26.7 ± 0.47 µg/mL (≈ 72.1 µM).
`COc1cc(/C=C/C(=O)OCCc2ccccc2)cc(OC)c1OC` [Compound 12, (E)-Phenethyl 3-(3,4,5-trimethoxyphenyl)acrylate] gave an IC50 in data set [1] of 24.8 ± 0.37 µg/mL (≈ 72.4 µM).
As for `COc1cc(/C=C/C(=O)OCCc2ccc(C)cc2)cc(OC)c1OC` [Compound 13, (E)-4-Methylphenethyl 3-(3,4,5-Trimethoxyphenyl)acrylate], in data set [1], 30.3 ± 0.35 µg/mL (≈ 85.1 µM) corresponded to half-maximal inhibition (IC50).
`CCCCNC(=O)/C=C/c1cc(OC)c(OC)c(OC)c1` [Compound 14, (E)-N-Butyl-3-(3,4,5-trimethoxyphenyl)acrylamide]: the melting point fell in the range of 225 to 226 °C. Besides, the half-inhibitory concentration (IC50) in data set [1] worked out at 13.2 ± 0.32 µg/mL (≈ 45 µM).
In data set [1], `COc1cc(/C=C/C(=O)NCc2ccccc2)cc(OC)c1OC` [Compound 15, (E)-N-Benzyl-3-(3,4,5-trimethoxyphenyl)acrylamide] showed an IC50 of 33.1 ± 0.41 µg/mL (≈ 101 µM).
Turning to `COc1cc(/C=C/C(=O)NCc2ccc(C)cc2)cc(OC)c1OC` [Compound 16, (E)-N-(4-Methylbenzyl)-3-(3,4,5-trimethoxyphenyl)acrylamide], the melting point fell in the range of 203 to 205 °C. The molecule also registered an IC50 in data set [1] of 22.7 ± 0.34 µg/mL (≈ 66.6 µM).
For the molecule `COc1ccc(CNC(=O)/C=C/c2cc(OC)c(OC)c(OC)c2)cc1` [Compound 17, (E)-N-(4-Methoxybenzyl)-3-(3,4,5-trimethoxyphenyl)acrylamide], the melting point lay in the range of 225 to 226 °C. Further, the midpoint of inhibition in data set [1], the IC50, lay at 22.7 ± 0.39 µg/mL (≈ 63.4 µM).
Turning to `COc1cc(/C=C/C(=O)NCc2ccc(Cl)cc2)cc(OC)c1OC` [Compound 18, (E)-N-(4-Chlorobenzyl)-3-(3,4,5-trimethoxyphenyl)acrylamide], the melting point is 215 to 218 °C. In addition, the IC50 in data set [1] amounted to 43.4 ± 0.48 µg/mL (≈ 120 µM).
`CC(=O)O[C@H]1C(=O)[C@@]2(C)[C@H]([C@H](OC(=O)c3ccccc3)[C@]3(O)C[C@H](OC(=O)[C@H](O)[C@@H](NC(=O)c4ccccc4)c4ccccc4)C(C)=C1C3(C)C)[C@]1(OC(C)=O)CO[C@@H]1C[C@@H]2O` [paclitaxel, reference compound] yielded an IC50 in data set [1] of 2.12 µg/mL (≈ 2.48 µM).
